Source: patent US10626095B2, “Cyanotriazole compounds” (OTSUKA PHARMACEUTICAL CO., LTD., priority 2013, dated 2020)

These compounds were tested on NaCT-CHO (CHO cells stably expressing human NaCT) (assay: Assay of the citric acid cycle activation ([1,5-14C]-citric acid, diffusion of [14C]-CO2)). Details: 1 hour incubation at 37° C. with [1,5-14C]-citric acid.
Format: cell-based
In short: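 NaCT-CHO cells (pME-CHO empty-vector cells for non-specific counts) were incubated 1 h at 37 °C in Na+-containing HEPES-Tris pH 7.4 with compound plus an equal volume of 0.4 mM [1,5-14C]-citric acid solution. Residual cell radioactivity was counted, [14C]-CO2 diffusion was taken as (Total−R)/(Total−NS)×100%, and EC50 was derived by regression.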
`COc1sc(-c2ccc(Cl)cc2)nc1-c1nn[nH]c1C#N` [Example 110, 5-[2-(4-chloro-phenyl)-5-methoxy-thiazol-4-yl]-3H-[1,2,3]triazole-4-carbonitrile] gave an EC50 of 3.23 µM. Work on `N#Cc1[nH]nnc1-c1cnc(-c2cccc(C(F)(F)F)c2)s1` [Example 111, 5-[2-(3-trifluoromethyl-phenyl)-thiazol-5-yl]-3H-[1,2,3]triazole-4-carbonitrile] yielded an EC50 of 0.75 µM. `N#Cc1[nH]nnc1-c1cnc(/C=C/c2cccc(C(F)(F)F)c2)s1` [Example 112, 5-{2-[(E)-2-(3-trifluoromethyl-phenyl)-vinyl]-thiazol-5-yl}-3H-[1,2,3]triazole-4-carbonitrile] gave an EC50 of 0.79 µM. In the case of `Cc1nc(-c2ccc(Cl)cc2)sc1-c1nn[nH]c1C#N` [Example 113, 5-[2-(4-chloro-phenyl)-4-methyl-thiazol-5-yl]-3H-[1,2,3]triazole-4-carbonitrile], the EC50 is reported as 0.79 µM. For `Cc1nc(-c2cccc(C(F)(F)F)c2)sc1-c1nn[nH]c1C#N` [Example 114, 5-[4-methyl-2-(3-trifluoromethyl-phenyl)-thiazol-5-yl]-3H-[1,2,3]triazole-4-carbonitrile], the EC50 was 0.45 µM. Work on `CCc1nc(-c2ccc(Cl)cc2)sc1-c1[nH]nnc1C#N` [Example 115, 5-[2-(4-chloro-phenyl)-4-ethyl-thiazol-5-yl]-1H-[1,2,3]triazole-4-carbonitrile] yielded an EC50 of 0.65 µM. `N#Cc1[nH]nnc1-c1sc(-c2ccc(F)c(Cl)c2)nc1C(F)(F)F` [Example 116, 5-[2-(3-chloro-4-fluoro-phenyl)-4-trifluoromethyl-thiazol-5-yl]-3H-[1,2,3]triazole-4-carbonitrile] gave an EC50 of 4.13 µM. Work on `N#Cc1[nH]nnc1-c1coc(-c2ccc(OC(F)(F)F)cc2)n1` [Example 117, 5-[2-(4-trifluoromethoxy-phenyl)-oxazol-4-yl]-3H-[1,2,3]triazole-4-carbonitrile] yielded an EC50 of 1.59 µM. `CCCc1oc(-c2ccc(Cl)cc2)nc1-c1nn[nH]c1C#N` [Example 119, 5-[2-(4-chloro-phenyl)-5-propyl-oxazol-4-yl]-3H-[1,2,3]triazole-4-carbonitrile] was tested, and the EC50 was 0.71 µM. With `N#Cc1[nH]nnc1-c1nc(-c2cccc(Cl)c2)oc1C1CC1` [Example 121, 5-[2-(3-chloro-phenyl)-5-cyclopropyl-oxazol-4-yl]-3H-[1,2,3]triazole-4-carbonitrile] the EC50 was 0.99 µM. Work on `CC(C)c1oc(-c2ccc(F)cc2)nc1-c1nn[nH]c1C#N` [Example 123, 5-[2-(4-fluoro-phenyl)-5-isopropyl-oxazol-4-yl]-3H-[1,2,3]triazole-4-carbonitrile] yielded an EC50 of 0.68 µM. `CC(C)c1oc(-c2ccc(OC(F)(F)F)cc2)nc1-c1nn[nH]c1C#N` [Example 124, 5-[5-isopropyl-2-(4-trifluoromethoxy-phenyl)-oxazol-4-yl]-3H-[1,2,3]triazole-4-carbonitrile] gave an EC50 of 0.92 µM. `CC(C)Cc1oc(-c2ccc(F)c(F)c2)nc1-c1nn[nH]c1C#N` [Example 125, 5-[2-(3,4-difluoro-phenyl)-5-isobutyl-oxazol-4-yl]-3H-[1,2,3]triazole-4-carbonitrile] was tested, and the EC50 was 0.54 µM. Work on `N#Cc1[nH]nnc1-c1sccc1-c1cc(C(F)(F)F)cc(C(F)(F)F)c1` [Example 126, 5-[3-(3,5-bis-trifluoromethyl-phenyl)-thiophen-2-yl]-3H-[1,2,3]triazole-4-carbonitrile] yielded an EC50 of 0.26 µM. With `N#Cc1[nH]nnc1-c1sccc1-c1cccc(OCc2cc(C(F)(F)F)ccc2C(F)(F)F)c1` [Example 127, 5-{3-[3-(2,5-bis-trifluoromethyl-benzyloxy)-phenyl]-thiophen-2-yl}-3H-[1,2,3]triazole-4-carbonitrile] the EC50 was 0.74 µM. `N#Cc1[nH]nnc1-c1cc(-c2ccccc2)c(C(F)(F)F)s1` [Example 128, 5-(4-phenyl-5-trifluoromethyl-thiophen-2-yl)-3H-[1,2,3]triazole-4-carbonitrile] gave an EC50 of 0.56 µM. For `N#Cc1[nH]nnc1-c1ccc(-c2cc(F)cc(C(F)(F)F)c2)s1` [Example 129, 5-[5-(3-fluoro-5-trifluoromethyl-phenyl)-thiophen-2-yl]-3H-[1,2,3]triazole-4-carbonitrile], the EC50 was 0.44 µM. `Cc1cc(-c2nn[nH]c2C#N)sc1-c1ccc(C(F)(F)F)cc1` [Example 130, 5-[4-methyl-5-(4-trifluoromethyl-phenyl)-thiophen-2-yl]-3H-[1,2,3]triazole-4-carbonitrile] gave an EC50 of 0.73 µM. With `N#Cc1[nH]nnc1-c1ccc(Cc2ccc(Cl)cc2)s1` [Example 131, 5-[5-(4-chloro-benzyl)-thiophen-2-yl]-3H-[1,2,3]triazole-4-carbonitrile] the EC50 was 0.44 µM. `N#Cc1[nH]nnc1-c1ccc(Oc2cccc(C(F)(F)F)c2)s1` [Example 132, 5-[5-(3-trifluoromethyl-phenoxy)-thiophen-2-yl]-3H-[1,2,3]triazole-4-carbonitrile] showed an EC50 of 0.32 µM. With `N#Cc1[nH]nnc1-c1ccc(/C=C/c2cccc(C(F)(F)F)c2)s1` [Example 133, 5-{5-[(E)-2-(3-trifluoromethyl-phenyl)-vinyl]-thiophen-2-yl}-3H-[1,2,3]triazole-4-carbonitrile] the EC50 was 0.19 µM. Compound `N#Cc1[nH]nnc1-c1cscc1-c1cc(C(F)(F)F)cc(C(F)(F)F)c1` [Example 134, 5-[4-(3,5-bis-trifluoromethyl-phenyl)-thiophen-3-yl]-3H-[1,2,3]triazole-4-carbonitrile] has an EC50 of 0.085 µM. Work on `N#Cc1[nH]nnc1-c1cc(/C=C/c2cccc(C(F)(F)F)c2)co1` [Example 135, 5-{4-[(E)-2-(3-trifluoromethyl-phenyl)-vinyl]-furan-2-yl}-3H-[1,2,3]triazole-4-carbonitrile] yielded an EC50 of 1.57 µM. For `N#Cc1[nH]nnc1-c1ccc(-c2ccc(Cl)cc2)o1` [Example 136, 5-[5-(4-chloro-phenyl)-furan-2-yl]-3H-[1,2,3]triazole-4-carbonitrile], the EC50 was 0.68 µM. For `N#Cc1[nH]nnc1-c1cccn1Cc1ccc(C(F)(F)F)cc1C(F)(F)F` [Example 138, 5-[1-(2,4-bis-trifluoromethyl-benzyl)-1H-pyrrol-2-yl]-3H-[1,2,3]triazole-4-carbonitrile], the EC50 was 0.062 µM. For `Cn1c(-c2cc(F)cc(C(F)(F)F)c2)ccc1-c1nn[nH]c1C#N` [Example 139, 5-[5-(3-fluoro-5-trifluoromethyl-phenyl)-1-methyl-1H-pyrrol-2-yl]-3H-[1,2,3]triazole-4-carbonitrile], the EC50 was 0.21 µM. `N#Cc1[nH]nnc1-c1ccn(-c2cc(C(F)(F)F)ccc2C(F)(F)F)c1` [Example 140, 5-[1-(2,5-bis-trifluoromethyl-phenyl)-1H-pyrrol-3-yl]-3H-[1,2,3]triazole-4-carbonitrile] was tested, and the EC50 was 0.8 µM. In the case of `N#Cc1[nH]nnc1-c1cccc(-c2cccc(C(F)(F)F)c2)n1` [Example 141, 5-[6-(3-trifluoromethyl-phenyl)-pyridin-2-yl]-3H-[1,2,3]triazole-4-carbonitrile], the EC50 is reported as 0.71 µM. In the case of `CCC(OCc1ccc(C(F)(F)F)cc1)c1cccc(-c2nn[nH]c2C#N)n1` (stereo not drawn) [Example 142, 5-{6-[1-(4-trifluoromethyl-benzyloxy)-propyl]-pyridin-2-yl}-3H-[1,2,3]triazole-4-carbonitrile], the EC50 is reported as 0.58 µM. With `N#Cc1[nH]nnc1-c1ccc(-c2cccc(C(F)(F)F)c2)nc1` [Example 143, 5-[6-(3-trifluoromethyl-phenyl)-pyridin-3-yl]-3H-[1,2,3]triazole-4-carbonitrile] the EC50 was 1.02 µM. `N#Cc1[nH]nnc1C1CCN(c2cc(C(F)(F)F)ccc2C(F)(F)F)CC1` [Example 144, 5-[1-(2,5-bis-trifluoromethyl-phenyl)-piperidin-4-yl]-3H-[1,2,3]triazole-4-carbonitrile] was tested, and the EC50 was 0.79 µM. `N#Cc1[nH]nnc1-c1ccc2ccn(-c3ccc(F)c(F)c3)c2c1` [Example 145, 5-[1-(3,4-difluoro-phenyl)-1H-indol-6-yl]-3H-[1,2,3]triazole-4-carbonitrile] gave an EC50 of 0.37 µM. `N#Cc1[nH]nnc1-c1sc2ccccc2c1-c1ccc(F)cc1` [Example 148, 5-[3-(4-fluoro-phenyl)-benzo[b]thiophen-2-yl]-3H-[1,2,3]triazole-4-carbonitrile] was tested, and the EC50 was 0.92 µM. `N#Cc1[nH]nnc1Cc1cccc(-c2cccc(C(F)(F)F)c2)c1` [Example 149, 5-(3′-trifluoromethyl-biphenyl-3-ylmethyl)-3H-[1,2,3]triazole-4-carbonitrile] was tested, and the EC50 was 0.7 µM. In the case of `N#Cc1[nH]nnc1CCc1ccccc1OCc1cc(C(F)(F)F)ccc1C(F)(F)F` [Example 150, 5-{2-[2-(2,5-bis-trifluoromethyl-benzyloxy)-phenyl]-ethyl}-3H-[1,2,3]triazole-4-carbonitrile], the EC50 is reported as 0.86 µM.

The compounds below were run on Zucker Diabetic Fatty (ZDF) rat (assay: Meal load test in type 2 diabetic model rats (postprandial blood glucose)). Details: ZDF rats fasted overnight, oral 30 mg/kg in 5% Arabia gum, blood glucose one hour after meal loading (50 kcal/kg).
Format: in vivo
Parameters: unit not given here
Description: Effects on Type 2 Diabetes: Meal Load Test
To evaluate whether a cyanotriazol compound improves diabetes or not, especially related to postprandial blood glucose, meal load test was performed using one of type 2 diabetic model rats, the Zucker Diabetic Fatty (ZDF) rat (Charles river, Japan). About 24 animals fasted overnight (17 h) were taken blood samples from the tail veins, and measured blood glucose levels (Pre BG) and body weights (BW). Proper animals were selected and divided into […] (n=6) based on the Pre BG and BW using SAS Statistical Analysis System (SAS institute Japan Ltd. Release 9.1). The compounds to be tested (10 or 30 mg/kg body weight in 5% Arabia gum) or Arabia gum solution only (vehicle group) were orally administrated via gavage two hours prior to or just before meal loading (50 kcal/kg body weight). The meal suspension was prepared by mixing purified AIN-93G (Norsan Corp, Yokohama, Japan) and distilled water (2:3, w/v). One-hour after meal loading, blood glucose (BG1h) of each animal was measured. Effectiveness of each compound was shown by ? BG1h (BG1h difference between compound group and vehicle group). Although a set of 24 animals was used several times (from 13 weeks to 21 weeks of age), at least a one-week interval was placed from one to another test.
In the case of `CC(OC(=O)OCC(C)(C)C(=O)O)n1nc(C#N)c(-c2cccc(OCc3cc(C(F)(F)F)ccc3C(F)(F)F)c2)n1` (stereo not drawn) [Example 1806, 3-(1-{4-[3-(2,5-bis-trifluoromethyl-benzyloxy)-phenyl]-5-cyano-2H-[1,2,3]triazol-2-yl}-ethoxycarbonyloxy)-2,2-dimethyl-propionic acid], the “BG1h (BG1h difference between compound group and vehicle group)” value is reported as −86.3.
